Assay results: ChEMBL document CHEMBL3217713, “Synthesis and biological evaluation of primaquinechloroquine twin drug: a novel heme-interacting molecule prevents free heme and hydroxyl radical-mediated protein degradation” (Medchemcomm, 2013)
Active and inactive are the calls of the source. The calls are words filed in the database; no cut-off is given here.

Tests used:
Heme [1] = assay: Binding affinity to heme (unknown origin)
[2] = Cytotoxicity against rat gastric mucosal cells assessed as cell viability at 10 to 100 uM after 16 hrs by MTT assay; format: cell-based, Gastric mucosa
Heme [3] = assay: Binding affinity to heme (unknown origin) by differential spectroscopy
Heme [4] = assay: Binding affinity to heme (unknown origin) at 2 to 20 uM by optical spectroscopy
[5] = Antioxidant activity assessed as reduction of Fe(3)-TPTZ to Fe(2)-TPTZ complex after 5 mins by FRAP assay; format: functional
[6] = Antioxidant activity assessed as reduction of hydroxyl radical-mediated BSA damage at 50 uM after 30 mins by SDS-PAGE; format: functional
[7] = test system: Radical scavenging activity; assay: Antioxidant activity assessed as DPPH free radical scavenging activity after 30 mins by spectrophotometry; format: functional
[8] = Antioxidant activity assessed as reduction of heme/H2O2-mediated BSA degradation at 50 uM after 1 hr by SDS-PAGE; format: functional
[9] = Iron chelating activity of the compound assessed as reduction of Fe(2)-TPTZ complex formation by UV-visible spectrophotometry; format: physicochemical

In the case of `CCN(CC)CCCC(C)Nc1ccnc2cc(Cl)ccc12` (stereo not drawn), the Ka (Heme [1]) is reported as 5.5 ×10⁴ /M.
For `COc1cc(NC(C)CCCN)c2ncccc2c1` (stereo not drawn) [PRIMAQUINE], the Activity [2] was “Toxic”.
In the case of `COc1cc(NC(C)CCCNc2ccnc3cc(Cl)ccc23)c2ncccc2c1` (stereo not drawn), the Kapp (Heme [3]) is reported as 2.3 ×10⁴ /M, the Kd (Heme [3]) is reported as 4.34 µM and the Activity (Heme [4]) is reported as “Active”. For the same compound, the Activity [5] was 30 µM, the Activity [6] was “Active” and the Activity [7] was “Dose-dependent effect”. For the same compound, the IC50 [7] was 23 µM, the Activity [2] was “Non-toxic” and the Activity [8] was “Active”. The Kd [9] was 5.19 µM.
Compound `O=C(O)c1cc(O)c(O)c(O)c1` has an Activity [5] of 33.9 µM.
